Structures are written as SMILES. Values after ≈ are worked out from the molar mass of the structure shown. Where a SMILES comes first, the peptide text is derived from it. Bridges are numbered along the chain shown (N, C = ends).

Data set [1] relates to S. aureus ATCC43300. Briefly: Time-kill curve (bacterial kinetics in vitro). The data set is classed as cell-based, Staphylococcus aureus. The settings on record: 1 × 10^5 CFU/mL, 37°C, 250 rpm, colony counting. On the procedure:
The bactericidal efficiency of Ple-AB was evaluated by plotting a time-kill curve ([Zheng et al., 2021]). Single colonies of the S. aureus ATCC43300 were picked for overnight activation, and 1% were transferred and incubated at 37°C until the logarithmic growth phase. […] Samples of 100 uL of bacteria were taken at 0, 0.5, 1, 2, 4, 6, 8, 10, 12, and 24 h, diluted, and coated to count the number of single colonies and plot the time-killing curve.

In data set [2] the test system is S. aureus ATCC43300. Description: Thermal stability read out as MIC. The data set is classed as physicochemical, Staphylococcus aureus. The settings on record: 1 h; for MIC after heat treatment: triplicates. The protocol:
(§1) The stability of Ple-AB was assessed based on its antibacterial activity against S. aureus ATCC43300. Temperature stability was determined by incubation at 20, 40, 60, 80, and 100°C for 1 h ([Li et al., 2020]). The pH stability was determined by incubation in buffers with a pH of 2, 4, 6, 8, and 10 for 4 h ([Yang et al., 2017]). The peptides were incubated with different concentrations of metal ions, serum, artificial gastric fluid, and simulated intestinal fluid to assess their stability in the blood and intestines ([Lyu et al., 2019]). All the treatments were performed in triplicates.

Data set [3] concerns S. aureus ATCC43300. Description: Serum stability read out as MIC. The data set is classed as in vitro ADME, Staphylococcus aureus. Conditions: 1–8 h, triplicates. On the procedure: as §1

With `CC[C@H](C)[C@@H]1NC(=O)[C@H](CO)NC(=O)[C@H](CCCCN)NC(=O)[C@@H]2CSSC[C@@H](C(=O)N[C@@H](Cc3ccc(O)cc3)C(=O)O)NC(=O)[C@H](CCCCN)NC(=O)[C@@H]3CSSC[C@H](NC(=O)[C@H](CCC(N)=O)NC(=O)[C@H](CCSC)NC(=O)[C@H](CCC(=O)O)NC(=O)[C@H](CC(=O)O)NC(=O)[C@H](Cc4c[nH]c5ccccc45)NC(=O)[C@@H]4CCCN4C(=O)[C@@H](NC(=O)CNC(=O)[C@H](Cc4ccccc4)NC(=O)CN)CSSC[C@H](NC(=O)[C@H](Cc4ccc(O)cc4)NC(=O)CNC(=O)CNC(=O)[C@H](CCCCN)NC(=O)[C@H](Cc4ccc(O)cc4)NC(=O)CNC(=O)[C@H](CCCCN)NC1=O)C(=O)N[C@@H](C)C(=O)N[C@@H](CCCCN)C(=O)NCC(=O)NCC(=O)N[C@@H](Cc1ccccc1)C(=O)N[C@@H](C(C)C)C(=O)N3)C(=O)N[C@@H](Cc1c[nH]cn1)C(=O)N[C@@H](CC(N)=O)C(=O)N[C@@H](Cc1c[nH]cn1)C(=O)N2` [Ple-AB] (H-GFGCPWDEMQCHNHCKSIKGYKGGYCAKGGFVCKCY-OH; disulfide 4-26, 11-33, 15-35; N-terminus and C-terminus assumed), the “Time to kill all the strains” value in the data set on S. aureus ATCC43300 [1] (1× MIC) and in the data set with S. aureus ATCC43300 [1] (2× MIC) was no more than 4 h throughout. The “Time to 99% bactericidal activity” value in the data set with S. aureus ATCC43300 [1] (4× MIC) is on record as no more than 2 h. In addition, the “MIC after heat treatment” value in the data set on S. aureus ATCC43300 [2] (20°C) came to 16 mg/L (≈ 4 µM); in the data set with S. aureus ATCC43300 [2] (40°C) it was 16 mg/L (≈ 4 µM); in the data set on S. aureus ATCC43300 [2] (60°C) it was 16 mg/L (≈ 4 µM); against S. aureus ATCC43300 [2] (80°C) it was 16 mg/L (≈ 4 µM); against S. aureus ATCC43300 [2] (100°C), 32 mg/L (≈ 8 µM). Besides, in the data set on S. aureus ATCC43300 [2] (100°C, versus control), the “Increase of MIC after heat treatment” value is listed as “twofold”. Besides, the MIC after serum in the data set with S. aureus ATCC43300 [3] (Serum (25%)) and against S. aureus ATCC43300 [3] (Serum (50%)) was 16 mg/L (≈ 4 µM) in each case.

For the origin of these results see article PMC10771296, “Plectasin: from evolution to truncation, expression, and better druggability” (Frontiers in Microbiology, 2023).
